According to patent publication US20250002527A1, “STEROID COMPOUND AND CONJUGATE THEREOF” (DUALITY BIOLOGICS (SUZHOU) CO., LTD., priority 2021, published 2025):

What was measured:
Assay type in all cases: cell-based
human PBMC cells = assay: TNF-α secretion from PBMC under R848 stimulation (compounds); conditions: R848 5 μM, 24 hours, mean ± standard deviation
Procedure: The compounds of the present application were tested for their inhibitory effect on the production of peripheral blood monocytes. The peripheral blood monocytes were treated in vitro with the ligand-drug conjugate at different concentrations, and IFNα and TNFα generated by the peripheral blood monocytes were quantitatively detected after a certain time. The compounds of the present invention were evaluated for in-vitro activity.
The cryopreserved human PBMC cells were resuspended in a complete medium and counted, and the cell suspension was adjusted to 2.5×10*6 cells/mL with the culture medium. After the suspension was centrifuged to collect the cells the next day, the cells were resuspended using fresh culture medium. Test compounds were diluted to 4-fold final concentration in cell culture medium, 50 μL of the compounds were added into a 96-well cell plate, and 100 μL of diluted cells ([…]) were added into each well of the 96-well plate containing the compounds, followed by addition of 50 μL R848 to a final concentration of 5 μM. The cell plate was incubated at 37° C. with 5% CO2 for 24 hours. The supernatant was collected, and the TNF-α and IFN-α concentration levels in the supernatant were detected using an ELISA kit.
TNF-α concentration assay was performed using Dakewe TNF-α ELISA kit (Cat #1117202), 100 μL of the serially-diluted cytokine standard was added into each well, 100 μL of the above supernatant diluted 10-fold was added into each well, and 100 μL of 1× dilution buffer R was added into each blank well. 50 μL of biotinylated antibody working solution was added into each well. After mixing well, the plate was covered with the plate-sealing membrane and incubated at room temperature for 3 hours. The plate was washed for 3 times: the liquid in each well was discarded, and 300 μL of 1× washing buffer working solution was added into each well; after 1 minute of residence, the liquid in the wells was discarded. The procedure was repeated for 3 times. 100 μL of Streptavidin-HRP working solution was added into each well. The plate was covered with the plate-sealing membrane and incubated at room temperature for 20 minutes. The plate was washed for 3 times, 100 μL of TMB liquid was added into each well, and the plate was incubated for 25 minutes at room temperature (18-25° C.) in the dark. The reaction was stopped by adding 100 μL stop solution rapidly to each well. The reading at a wavelength of 450 nm was detected by an M2e instrument within 10 minutes after termination.
The contents of TNF-α and IFN-α were calculated from the OD450 values.

glucocorticoid receptor = biological target: T1, glucocorticoid receptor (Homo sapiens, UniProt P04150); assay: Measurement 1 of glucocorticoid receptor reporter gene GRE activity; conditions: HEK293 transfected with pGL5 and pBIND-GR, 24 hours
T1 construct: expressed in transfected cells; host or cells: HEK293
T1 sequence (P04150 1-777): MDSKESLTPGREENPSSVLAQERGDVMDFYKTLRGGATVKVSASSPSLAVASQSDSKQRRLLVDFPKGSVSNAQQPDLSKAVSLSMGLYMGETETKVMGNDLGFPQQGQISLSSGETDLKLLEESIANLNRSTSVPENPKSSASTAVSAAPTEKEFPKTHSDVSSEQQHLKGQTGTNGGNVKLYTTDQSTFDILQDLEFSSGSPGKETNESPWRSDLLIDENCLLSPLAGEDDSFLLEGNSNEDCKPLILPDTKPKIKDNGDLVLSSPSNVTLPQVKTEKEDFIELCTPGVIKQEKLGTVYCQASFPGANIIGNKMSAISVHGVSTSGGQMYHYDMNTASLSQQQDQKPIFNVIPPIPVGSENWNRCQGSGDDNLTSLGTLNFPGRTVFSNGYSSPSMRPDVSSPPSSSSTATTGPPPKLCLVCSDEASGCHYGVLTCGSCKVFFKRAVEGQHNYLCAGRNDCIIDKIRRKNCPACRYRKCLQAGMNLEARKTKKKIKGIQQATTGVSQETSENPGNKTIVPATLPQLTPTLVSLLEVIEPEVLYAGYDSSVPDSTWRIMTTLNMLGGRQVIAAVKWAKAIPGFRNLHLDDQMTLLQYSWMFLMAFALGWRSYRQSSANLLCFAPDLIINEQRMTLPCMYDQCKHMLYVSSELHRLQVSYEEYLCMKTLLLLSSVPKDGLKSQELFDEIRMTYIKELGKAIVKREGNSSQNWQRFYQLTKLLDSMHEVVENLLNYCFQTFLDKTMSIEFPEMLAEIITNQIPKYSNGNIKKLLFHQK
Procedure: (§1) HEK293 cells were cultured in DMEM+10% FBS medium in a carbon dioxide incubator humidified at 37° C. at 5% carbon dioxide.
(§2) The prepared transfection mixtures were added to 10 mL of the cell density-adjusted resuspension, mixed well by turning the mixtures upside down, and seeded into a 96-well plate at a volume of 100 μL/well.
(§3) The test plate was detected using the Dual-Glo Luciferase Assay System kit from Promega, and the fluorescence signal of Firefly Luciferase and the fluorescence signal of Renilla Luciferase were read using Enspire, respectively.
The final measurement value was a normalized value “F/R” obtained by dividing the Firefly Luciferase fluorescent signal by the Renilla Luciferase fluorescent signal.
The data were copied and pasted into Excel, and the activation rate was obtained through an equation.
The data were imported into MS Excel and subjected to curve fitting by using XLFit excel add-in version 5.4.0.8 to obtain an EC50 value.
(§4) Y is the agonism and X is the concentration of the compound.

ERα = biological target: T2, ERα (Homo sapiens, UniProt P03372); assay: ERα luciferase reporter gene experiment; conditions: HEK293 transfected with pBIND-ERα
T2 sequence (P03372 311-547 limits assumed): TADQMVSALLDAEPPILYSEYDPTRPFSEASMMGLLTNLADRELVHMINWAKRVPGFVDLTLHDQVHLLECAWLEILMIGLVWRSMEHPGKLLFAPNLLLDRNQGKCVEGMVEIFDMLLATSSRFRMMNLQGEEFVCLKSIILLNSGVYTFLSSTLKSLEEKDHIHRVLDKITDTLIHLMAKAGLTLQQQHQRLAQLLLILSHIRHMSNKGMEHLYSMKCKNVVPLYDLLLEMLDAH
Procedure: as §1
• 1) HEK293 cells were trypsinized, and the HEK293 cell resuspension was adjusted to 200,000 cell/mL in medium (96 well plate: 100 μL/well). • 2) Transfection reagent mixtures were prepared according to the table below, mixed well and left at room temperature for 20 minutes.
as §2, with “• 3) The” for “The”, “μL/well. • 4) The 96-well plate was incubated in a humidified incubator at 37° C. and 5% carbon dioxide for 24 hours.” for “μL/well.”
as §3, §4

C[C@]12C=CC(=O)C=C1CC[C@@H]1[C@@H]2[C@@H](O)C[C@@]2(C)[C@H]1C[C@H]1O[C@@H](c3ccc(Cc4ccc(CO)cc4)cc3)O[C@]12C(=O)CO [Compound 4]
TNF-α secretion (pg/mL) from PBMC under R848 stimulation (human PBMC cells; compound 4 nM): 443.6 pg/mL | TNF-α secretion (pg/mL) from PBMC under R848 stimulation (human PBMC cells; compound 20 nM): 320 pg/mL | TNF-α secretion (pg/mL) from PBMC under R848 stimulation (human PBMC cells; compound 100 nM): 356.1 pg/mL | EC50 (glucocorticoid receptor): 0.04 nM | EC50 (ERα): > 1000 nM
